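Tested at 5 concentrations; 48 h exposure; 96-well plates; endpoints linearly interpolated, else capped at highest concentration. The concentration for 50% growth inhibition is given as GI50. The concentration for full growth arrest is given as TGI.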
How the values were obtained:
Test in all cases: DTP human tumour cell line panel, 48 h
NCI-H522 lung = test system: NCI-H522 lung
OVCAR-3 ovarian = test system: OVCAR-3 ovarian
CCRF-CEM leukemia = test system: CCRF-CEM leukemia
DU-145 prostate = test system: DU-145 prostate
ACHN renal = test system: ACHN renal
CAKI-1 renal = test system: CAKI-1 renal
A549 NSCLC = test system: A549 NSCLC
LOX IMVI melanoma = test system: LOX IMVI melanoma
NCI-H226 lung = test system: NCI-H226 lung
SF-268 CNS = test system: SF-268 CNS
COLO 205 colon = test system: COLO 205 colon
HL-60(TB) leukemia = test system: HL-60(TB) leukemia
MOLT-4 leukemia = test system: MOLT-4 leukemia
A498 renal = test system: A498 renal
OVCAR-4 ovarian = test system: OVCAR-4 ovarian
M14 melanoma = test system: M14 melanoma
UACC-62 melanoma = test system: UACC-62 melanoma
NCI-H23 lung = test system: NCI-H23 lung
SF-539 CNS = test system: SF-539 CNS
RPMI-8226 leukemia = test system: RPMI-8226 leukemia
NCI/ADR-RES ovarian = test system: NCI/ADR-RES ovarian
HCT-116 colon = test system: HCT-116 colon
HCC-2998 colon = test system: HCC-2998 colon
786-0 renal = test system: 786-0 renal
MDA-MB-231 breast = test system: MDA-MB-231 breast
PC-3 prostate = test system: PC-3 prostate
HCT-15 colon = test system: HCT-15 colon
IGROV1 ovarian = test system: IGROV1 ovarian

COc1cc(/C=C2\C(=O)Nc3ccccc32)cc(OC)c1O
GI50 (NCI-H522 lung): 1.72 µM | TGI (NCI-H522 lung): 5.1 µM | GI50 (OVCAR-3 ovarian): 1.98 µM | TGI (OVCAR-3 ovarian): 5.05 µM | GI50 (CCRF-CEM leukemia): 5.16 µM | TGI (CCRF-CEM leukemia): > 100 µM | GI50 (DU-145 prostate): 5.35 µM | TGI (DU-145 prostate): 46.4 µM | GI50 (ACHN renal): 4.7 µM | TGI (ACHN renal): 22.2 µM | GI50 (CAKI-1 renal): 2.93 µM | TGI (CAKI-1 renal): 25.3 µM | GI50 (A549 NSCLC): 4.91 µM | TGI (A549 NSCLC): 48.1 µM | GI50 (LOX IMVI melanoma): 3.99 µM | TGI (LOX IMVI melanoma): 16.3 µM | GI50 (NCI-H226 lung): 17.7 µM | TGI (NCI-H226 lung): > 100 µM | GI50 (SF-268 CNS): 4.24 µM | TGI (SF-268 CNS): 29.1 µM | GI50 (COLO 205 colon): 12.3 µM | TGI (COLO 205 colon): 26.8 µM | GI50 (HL-60(TB) leukemia): 2.8 µM | TGI (HL-60(TB) leukemia): 11.1 µM | GI50 (MOLT-4 leukemia): 3.82 µM | TGI (MOLT-4 leukemia): 92.3 µM | GI50 (A498 renal): 2.08 µM | TGI (A498 renal): 15.8 µM | GI50 (OVCAR-4 ovarian): 4.95 µM | TGI (OVCAR-4 ovarian): 31.3 µM | GI50 (M14 melanoma): 2.76 µM | TGI (M14 melanoma): 11 µM | GI50 (UACC-62 melanoma): 2.59 µM | TGI (UACC-62 melanoma): 11.1 µM | GI50 (NCI-H23 lung): 4.97 µM | TGI (NCI-H23 lung): 34.2 µM | GI50 (SF-539 CNS): 2.5 µM | TGI (SF-539 CNS): 13.3 µM | GI50 (RPMI-8226 leukemia): 5.47 µM | TGI (RPMI-8226 leukemia): 27.5 µM | GI50 (NCI/ADR-RES ovarian): 2.47 µM | TGI (NCI/ADR-RES ovarian): 7.62 µM | GI50 (HCT-116 colon): 3.29 µM | TGI (HCT-116 colon): 13.5 µM | GI50 (HCC-2998 colon): 11.9 µM | TGI (HCC-2998 colon): 24.5 µM | GI50 (786-0 renal): 7.07 µM | TGI (786-0 renal): 27.5 µM | GI50 (MDA-MB-231 breast): 3.09 µM | TGI (MDA-MB-231 breast): 20.8 µM | GI50 (PC-3 prostate): 21 µM | TGI (PC-3 prostate): > 100 µM | GI50 (HCT-15 colon): 3.16 µM | TGI (HCT-15 colon): 15.1 µM | GI50 (IGROV1 ovarian): 3.72 µM | TGI (IGROV1 ovarian): 20.4 µM

— PubChem BioAssay (NCI)
